Experimental data from ChEMBL document CHEMBL3400087, “Modulating Acinetobacter baumannii biofilm development with molecules containing 3,4,5-trimethoxy-N,N',N'-trimethylbenzohydrazide moiety” (Bioorg Med Chem Lett, 2015).
Activity calls are given as the source filed them. The calls are words filed in the database; no cut-off is given here.

Columns and labels:
Acinetobacter baumannii [1] = assay: Inhibition of Acinetobacter baumannii AB5711 biofilm formation at 200 uM after 24 hrs by crystal violet staining-based static MBEC biofilm assay; format: functional, organism-based
RAW264.7 = assay: Cytotoxicity against mouse RAW264.7 cells assessed as reduction in cell viability at >200 uM after 24 hrs by trypan blue-staining based microscopic analysis; conditions: raw264.7, 24 h
Acinetobacter baumannii [2] = assay: Inhibition of Acinetobacter baumannii AB5711 biofilm formation assessed as inhibition of cell adherence to surface at 100 uM by crystal violet staining-based modified microtiter biofilm assay; format: functional, organism-based
Acinetobacter baumannii [3] = assay: Inhibition of Acinetobacter baumannii AB5711 biofilm formation in 14-French silicone urethral catheter at 200 uM measured after overnight incubation by crystal violet staining-based spectrophotometry; format: functional, organism-based
Acinetobacter baumannii [4] = assay: Inhibition of Acinetobacter baumannii AB5711 biofilm formation at 100 uM after 24 hrs by crystal violet staining-based static MBEC biofilm assay; format: functional, organism-based

## COc1cc(C(=O)NNC(=S)NC(C)(C)C)cc(OC)c1OC
Acinetobacter baumannii [1]
  inhibition: Active
RAW264.7
  Activity: Toxic
Acinetobacter baumannii [2]
  inhibition: Active
Acinetobacter baumannii [3]
  inhibition: Active
Acinetobacter baumannii [4]
  inhibition: inactive

## COc1cc(C(=O)NNC(=O)c2cccc(Cl)c2)cc(OC)c1OC
Acinetobacter baumannii [1]
  inhibition: Active
RAW264.7
  Activity: Toxic
Acinetobacter baumannii [2]
  inhibition: Active
Acinetobacter baumannii [3]
  inhibition: Active
Acinetobacter baumannii [4]
  inhibition: inactive

## CCNC(=S)NNC(=O)c1cc(OC)c(OC)c(OC)c1
Acinetobacter baumannii [1]
  inhibition: Active
RAW264.7
  Activity: Toxic
Acinetobacter baumannii [2]
  inhibition: Active
Acinetobacter baumannii [3]
  inhibition: Active
Acinetobacter baumannii [4]
  inhibition: inactive

## COc1cc(C(=O)N2N=C(C3CC3)CC2(O)C(F)(F)F)cc(OC)c1OC (stereo not given)
Acinetobacter baumannii [1]
  inhibition: Active
RAW264.7
  Activity: Toxic
Acinetobacter baumannii [2]
  inhibition: Active
Acinetobacter baumannii [3]
  inhibition: Active
Acinetobacter baumannii [4]
  inhibition: inactive

## COc1cc(C(=O)NN2c3ccccc3C(C)(C)C(C)(C)c3ccccc32)cc(OC)c1OC
Acinetobacter baumannii [1]
  inhibition: Active
RAW264.7
  Activity: Toxic
Acinetobacter baumannii [2]
  inhibition: Active
Acinetobacter baumannii [3]
  inhibition: Active
Acinetobacter baumannii [4]
  inhibition: inactive

## COc1cc(C(=O)NNC(=O)c2ccc(S(=O)(=O)C3CCC(C)CC3)cc2)cc(OC)c1OC (stereo not given)
Acinetobacter baumannii [1]
  inhibition: Active
RAW264.7
  Activity: Toxic
Acinetobacter baumannii [2]
  inhibition: Active
Acinetobacter baumannii [3]
  inhibition: inactive
Acinetobacter baumannii [4]
  inhibition: inactive

## COc1ccccc1C(=O)NNC(=O)c1cc(OC)c(OC)c(OC)c1
Acinetobacter baumannii [1]
  inhibition: Active
RAW264.7
  Activity: Toxic
Acinetobacter baumannii [2]
  inhibition: Active
Acinetobacter baumannii [3]
  inhibition: inactive
Acinetobacter baumannii [4]
  inhibition: inactive

## NNC(=O)c1cc(O)c(O)c(O)c1
Acinetobacter baumannii [1]
  inhibition: Active
RAW264.7
  Activity: Toxic
Acinetobacter baumannii [2]
  inhibition: Active
Acinetobacter baumannii [3]
  inhibition: Active
Acinetobacter baumannii [4]
  inhibition: inactive
